Data published in ChEMBL document CHEMBL6083232, “A review on synthetic inhibitors of dual-specific tyrosine phosphorylation-regulated kinase 1A (DYRK1A) for the treatment of Alzheimer's disease (AD)” (Bioorg Med Chem, 2024).

molecular target: T1, Dual specificity tyrosine-phosphorylation-regulated kinase 1A (Homo sapiens, UniProt Q13627); test: Inhibition of human DYRK1A in presence of ATP by Kinomescan method

| IC50 | SMILES |
| --- | --- |
| 4.6 nM | NCC(Nc1nccc(-c2n[nH]c3nc(NC4CCC(N)CC4)ncc23)n1)c1cccc(Cl)c1 (stereo not given) |
| 14 nM | NC1CCC(Nc2ncc3c(-c4ccnc(NCc5ccsc5)n4)n[nH]c3n2)CC1 (stereo not given) |

More lines, now with the values behind:

| SMILES | IC50 |
| --- | --- |
| CCn1c2cc(OC)ccc2c2ccnc(C)c21 | 9000 nM |
| COC(=N)c1nc2ccc3ncnc(Nc4ccc(F)cc4Br)c3c2s1 | 3 nM |
| NC1CCC(Nc2ncc3c(-c4ccnc(NCc5ccccc5)n4)n[nH]c3n2)CC1 (stereo not given) | 6 nM |
| COc1cc2[nH]c(=O)c(C(=O)Nc3cc(C(=O)NCc4cccc(Cl)c4)ccc3C)cc2cc1OCCN1CCOCC1 | 16 nM |

molecular target: T1, Dual specificity tyrosine-phosphorylation-regulated kinase 1A; test: Inhibition of human recombinant 6xHis-tagged DYRK1A catalytic domain (1 to 502 residues) extracted from Escherichia coli BL21 (DE3) cells incubated for 30 mins by Bradford's reagent based analysis

| IC50 | SMILES |
| --- | --- |
| 57800 nM | COc1ccc(-c2cnc3[nH]cc(-c4ccc(OC)c(OC)c4)c3c2)cc1OC |
| 12 nM | Oc1ccc(-c2cnc3[nH]cc(-c4ccc(O)c(O)c4)c3c2)cc1O |
| 56600 nM | Oc1ccc(-c2cnc3[nH]cc(-c4ccc(F)c(F)c4)c3c2)cc1O |
| 5260 nM | COc1ccc(-c2cnc3[nH]cc(-c4ccc(F)c(F)c4)c3c2)cc1OC |

Second part, the compound before the results:

| SMILES | IC50 |
| --- | --- |
| COc1ccc(-c2c[nH]c3ncc(-c4ccc(OC)c(OC)c4)cc23)cc1 | 460 nM |
| COc1ccc(-c2c[nH]c3ncc(-c4ccc(OCc5ccccc5)c(OCc5ccccc5)c4)cc23)cc1OC | 18500 nM |
| COc1ccc(-c2c[nH]c3ncc(-c4ccc(O)c(O)c4)cc23)cc1OC | 470 nM |
| COc1ccc(-c2cnc3[nH]cc(-c4ccc(F)cc4)c3c2)cc1OC | 1430 nM |

molecular target: Dual specificity protein kinase CLK1 (Homo sapiens, UniProt P49759); test: Inhibition of CLK1 (unknown origin)
Sequence (P49759 whole entry): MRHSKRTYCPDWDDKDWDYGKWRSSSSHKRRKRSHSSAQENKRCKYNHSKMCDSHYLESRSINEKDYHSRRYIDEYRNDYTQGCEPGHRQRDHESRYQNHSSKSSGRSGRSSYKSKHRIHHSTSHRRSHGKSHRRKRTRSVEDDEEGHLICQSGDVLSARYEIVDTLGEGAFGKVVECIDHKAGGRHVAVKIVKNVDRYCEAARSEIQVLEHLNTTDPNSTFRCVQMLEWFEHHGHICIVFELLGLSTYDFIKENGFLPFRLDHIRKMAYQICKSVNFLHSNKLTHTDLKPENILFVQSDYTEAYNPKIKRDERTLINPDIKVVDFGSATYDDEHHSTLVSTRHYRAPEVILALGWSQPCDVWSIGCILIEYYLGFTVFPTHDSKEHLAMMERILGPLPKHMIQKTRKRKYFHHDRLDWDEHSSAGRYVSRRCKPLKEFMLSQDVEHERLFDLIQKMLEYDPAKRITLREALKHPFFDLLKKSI

| SMILES | IC50 |
| --- | --- |
| COc1ccc2cc3c4c(cc(OC)c(OC)c4c2c1)C(=O)N3 [ARISTOLACTAM BIII] | 50.3 nM |

molecular target: T1, Dual specificity tyrosine-phosphorylation-regulated kinase 1A; test: Inhibition of DYRK1A (unknown origin)

| IC50 | SMILES |
| --- | --- |
| < 10000 nM | Cc1nc2ccc(-c3ccnc(N)c3)nc2n1-c1ccc(N2CCN(CCOCCOCCC(=O)N3CCN(Cc4ccc(CNc5cccc6c5C(=O)N(C5CCC(=O)NC5=O)C6)cc4)CC3)CC2)c(F)c1 (stereo not given) |
| 1 nM | O=c1[nH]c2ccc(-c3cncc(NCc4ccccc4)n3)cc2[nH]1 |
| 7.8 nM | O=C(NC1=Cc2ccc(O)cc2C1)Nc1ccc(NC(=O)c2ccc(O)cc2)cc1 |

More lines, now with the values behind:

| SMILES | IC50 |
| --- | --- |
| CC(C)Nc1cncc(-c2ccc3cnc(NC(=O)C4CCN(C)CC4)cc3c2)n1 | 1 nM |
| CC(C)N1CCC(n2cc(C(=O)Nc3cc4cc(-c5cnn(C)c5)ccc4cn3)cn2)CC1 | 1 nM |
| COCCn1nc2c(c1C#N)-c1cnc3[nH]cc(c3c1)-c1cn(nc1C(F)(F)F)CCCC(=O)N(C)C2 | < 50 nM |
| COc1nc(NC2CCN(C(C)=O)CC2F)nn2ccc(-c3ccc4nnn(CC(F)F)c4c3)c12 (stereo not given) | 1 nM |
| Cn1cc(C(=O)Nc2ncc(-c3ccc(C#N)cc3)s2)ccc1=O | < 10 nM |
| COCC(CC(C)C)NC1=N/C(=C\c2ccc3ncsc3c2)C(=O)N1C (stereo not given) | < 5 nM |
| CN1CCN(c2ccc(-c3ncnc4ccc(-c5ccnc(N)c5)cc34)cc2F)CC1 | < 100 nM |

molecular target: T1, Dual specificity tyrosine-phosphorylation-regulated kinase 1A; test: Inhibition of DYRK1A (unknown origin) extracted from Escherichia coli BL21 (DE3) cells measured for 60 mins by FRET assay

| IC50 | SMILES |
| --- | --- |
| 150 nM | CN(Cc1ccco1)c1ncnc2ccc(-c3ccc4c(c3)OCO4)cc12 |
| 84 nM | O=C1NC(Nc2ccc(O)cc2)=N/C1=C\c1ccc2c(c1)OCO2 |
| 900 nM | Oc1ccc(-c2cnc3cnc(-c4ccc(O)cc4)nc3c2)cc1 |
| 20 nM | CCCC#Cc1ccnc2[nH]cc(-c3ccnc(N)n3)c12 |

molecular target: T1, Dual specificity tyrosine-phosphorylation-regulated kinase 1A; test: Inhibition of DYRK1A (unknown origin) by FRET assay

| IC50 | SMILES |
| --- | --- |
| 180 nM | COc1ccc2c(c1)[nH]c1c3c(OC)cncc3cc(C#N)c21 |
| 1 nM | Cc1ccc(NC(=O)c2n[nH]c3ccc(-c4cncc(CN5CCCCC5)c4)cc23)cn1 |
| 2 nM | Cc1nc2ccc(-c3cc(N)nc(N)c3)nc2n1-c1ccccc1 |

The next lines start with the compound.

| SMILES | IC50 |
| --- | --- |
| CC(=O)Nc1nc2cc(O)ccc2s1 | 400 nM |
| CCN1/C(=C/C(C)=O)Sc2cc3oc4ccccc4c3cc21 | 20 nM |
| Cc1c(O)cccc1-c1ccc2nc(NC(=O)C3CC3F)sc2c1 (stereo not given) | 6 nM |
| Cc1nc(Nc2ccccc2)c2c(-c3cc(N)nc(N)c3)c[nH]c2n1 | 2 nM |

molecular target: Dual specificity tyrosine-phosphorylation-regulated kinase 1B (Homo sapiens, UniProt Q9Y463); test: Inhibition of DYRK1B (unknown origin) by DiscoverX KINOMEscan assay
Sequence (Q9Y463 whole entry): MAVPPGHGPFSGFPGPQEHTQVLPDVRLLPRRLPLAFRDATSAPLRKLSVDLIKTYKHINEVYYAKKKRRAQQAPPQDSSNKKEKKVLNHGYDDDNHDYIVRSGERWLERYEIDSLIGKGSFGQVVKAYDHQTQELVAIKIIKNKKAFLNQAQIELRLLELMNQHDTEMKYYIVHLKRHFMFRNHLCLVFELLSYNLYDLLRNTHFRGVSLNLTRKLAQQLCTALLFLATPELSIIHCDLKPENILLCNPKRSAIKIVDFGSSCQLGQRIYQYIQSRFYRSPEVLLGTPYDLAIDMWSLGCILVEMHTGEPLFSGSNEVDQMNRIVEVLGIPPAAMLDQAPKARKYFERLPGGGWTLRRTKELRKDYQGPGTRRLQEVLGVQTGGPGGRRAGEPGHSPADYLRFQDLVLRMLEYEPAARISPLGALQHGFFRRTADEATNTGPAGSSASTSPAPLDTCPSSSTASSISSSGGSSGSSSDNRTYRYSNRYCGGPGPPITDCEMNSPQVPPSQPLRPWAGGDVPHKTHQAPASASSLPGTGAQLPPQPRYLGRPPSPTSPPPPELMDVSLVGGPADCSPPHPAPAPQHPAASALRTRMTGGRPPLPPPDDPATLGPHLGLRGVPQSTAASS

| IC50 | SMILES |
| --- | --- |
| 56.6 nM | O=C(Nc1ccc(C(=O)NCc2ccccc2)cc1)Nc1nc2ccc(O)cc2s1 |

molecular target: Cyclin-dependent kinase 1 (Homo sapiens, UniProt P06493); test: Inhibition of CDK1 (unknown origin)
Sequence (P06493 whole entry): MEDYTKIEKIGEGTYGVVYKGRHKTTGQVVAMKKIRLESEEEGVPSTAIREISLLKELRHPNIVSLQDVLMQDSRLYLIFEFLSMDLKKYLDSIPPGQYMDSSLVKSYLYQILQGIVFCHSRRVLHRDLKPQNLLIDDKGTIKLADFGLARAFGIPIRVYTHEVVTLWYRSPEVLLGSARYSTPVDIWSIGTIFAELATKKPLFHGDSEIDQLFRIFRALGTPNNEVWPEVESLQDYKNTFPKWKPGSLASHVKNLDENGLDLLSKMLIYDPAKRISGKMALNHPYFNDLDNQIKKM

| SMILES | IC50 |
| --- | --- |
| COc1ccc2cc3c4c(cc(OC)c(OC)c4c2c1)C(=O)N3 [ARISTOLACTAM BIII] | 405 nM |

test system: not listed separately; test: Half life in human; assay type: ADME

| half-life | SMILES |
| --- | --- |
| > 1 h | CN1CCN(C(=O)c2ccc(NC(=O)Nc3nc4ccc(O)cc4s3)cc2)CC1 |

molecular target: T2, Dual specificity tyrosine-phosphorylation-regulated kinase 4 (Homo sapiens, UniProt Q9NR20); test: Inhibition of DYRK4 (unknown origin)
T2 sequence (Q9NR20 whole entry): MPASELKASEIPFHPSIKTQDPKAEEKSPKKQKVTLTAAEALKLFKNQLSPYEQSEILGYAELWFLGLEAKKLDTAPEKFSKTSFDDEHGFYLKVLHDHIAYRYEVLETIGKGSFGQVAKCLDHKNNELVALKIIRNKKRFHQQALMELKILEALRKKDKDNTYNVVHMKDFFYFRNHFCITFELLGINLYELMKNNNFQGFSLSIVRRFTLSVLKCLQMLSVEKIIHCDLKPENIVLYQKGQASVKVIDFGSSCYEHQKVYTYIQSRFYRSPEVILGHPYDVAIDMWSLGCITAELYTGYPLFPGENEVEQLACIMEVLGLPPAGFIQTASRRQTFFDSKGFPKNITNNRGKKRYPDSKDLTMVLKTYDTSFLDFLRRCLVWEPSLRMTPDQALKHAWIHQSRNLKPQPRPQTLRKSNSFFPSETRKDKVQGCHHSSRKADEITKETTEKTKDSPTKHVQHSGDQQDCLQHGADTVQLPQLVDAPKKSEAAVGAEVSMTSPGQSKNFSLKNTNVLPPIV

| SMILES | IC50 |
| --- | --- |
| COc1ccc2cc3c4c(cc(OC)c(OC)c4c2c1)C(=O)N3 [ARISTOLACTAM BIII] | 1180 nM |
